Measured values as given in PMC11124394, “Novel Combretastatin A-4 Analogs—Design, Synthesis, and Antiproliferative and Anti-Tubulin Activity” (Molecules, 2024).
Where two headings read alike, the source gives them in different places.

Tests used:
Type in all cases: cell-based
[1] = system: SW480 (primary colon cancer) cells; assay: SRB cytotoxicity assay, SW480; conditions: Homo sapiens, read-out: Cytotoxicity IC50, SW480
Method: (§1) The antiproliferative activity was tested on human primary (SW480) and metastatic (SW620) colon cancer, human prostate cancer (PC3), human liver cancer (HepG2), human breast cancer (MDA), human lung cancer (A549), and human immortalized keratinocyte (HaCaT) cell lines obtained from the American Type Culture Collection (ATCC, Rockville, MD, USA). The cells were cultured in EMEM (SW480 and SW620), RPMI 1640 (PC3) or DMEM High Glucose (HepG2, MDA, A549, and HaCaT) with stable glutamine supplemented with 10% heat-inactivated fetal bovine serum (FBS), penicillin (100 U/mL), and streptomycin (100 µg/mL) in 37 °C and 5% CO2/95% air humified incubator. The cells were grown until 80–90% confluence and then were harvested with 0.25% trypsin and used for the experiments. All the reagents for the cell culture were provided by VWR Chemicals.
(§2) Cytotoxicity was tested with the sulforhodamine B (SRB) assay according to the National Cancer Institute protocol with slight modifications. Briefly, cells were seeded on a 96-well plate (5 × 10^3 cells per well). After 24 h incubation, zero-time control cells were fixed with TCA (final concentration 5%) for 1 h at 4 °C. […] The untreated cells were used as the control. After incubation, the cells were fixed with TCA (final concentration 5%) for 1 h at 4 °C, gently washed 4 times with tap water, and left for drying. The dried fixed cells were incubated with SRB solution (0.05% SRB in 1% acetic acid) for 30 min rt, washed four times with 1% acetic acid, and left for drying. The dried cells were dissolved in 10 mM Tris-base solution (pH 10.5) and the absorbance was read at 510 nm.
(§3) The cell viability was presented as a percent of SRB reduction in the treated cells versus that in control cells. The mean absorbance for control cells was assumed as 100%. No-cell control (blank well) absorbance was assumed as 0%, unless the compound was cytostatic, then 0% referred to zero-time control. The IC50 values were calculated using the GraphPad Prism 10.1.2 (324) (USA) software. The most cytotoxic compounds (8 and 20) were selected for further in vitro experiments.

[2] = system: SW620 (metastatic colon cancer) cells; assay: SRB cytotoxicity assay, SW620; conditions: Homo sapiens, read-out: Cytotoxicity IC50, SW620
Method: as §1, §2, §3

[3] = system: PC3 (prostate cancer) cells; assay: SRB cytotoxicity assay, PC3; conditions: Homo sapiens, read-out: Cytotoxicity IC50, PC3
Method: as §1, §2, §3

A549 (lung cancer) cells = assay: SRB cytotoxicity assay, A549; conditions: Homo sapiens, read-out: Cytotoxicity IC50, A549
Method: as §1, §2, §3

[4] = system: HepG2 (liver cancer) cells; assay: SRB cytotoxicity assay, HepG2; conditions: Homo sapiens, read-out: Cytotoxicity IC50, HepG2
Method: as §1, §2, §3

[5] = system: MDA (breast cancer) cells; assay: SRB cytotoxicity assay, MDA; conditions: Homo sapiens, read-out: Cytotoxicity IC50, MDA
Method: as §1, §2, §3

[6] = SRB cytotoxicity assay, HaCaT; conditions: human, 48 h culture, mean ± SD, at least three independent experiments, compounds marked * : low solubility, real values might be lower
Method: as §1, §2, §3

[7] = SW480, SRB assay, 48 h culture, mean ± SD, at least three independent experiments, compounds marked * : low solubility, real values might be lower
[8] = SW-620, SRB assay, 48 h culture, mean ± SD, at least three independent experiments, compounds marked * : low solubility, real values might be lower
[9] = SRB assay, 48 h culture, mean ± SD, at least three independent experiments, compounds marked * : low solubility, real values might be lower
[10] = A549, SRB assay, 48 h culture, mean ± SD, at least three independent experiments, compounds marked * : low solubility, real values might be lower
[11] = HepG2, SRB assay, 48 h culture, mean ± SD, at least three independent experiments, compounds marked * : low solubility, real values might be lower
[12] = HaCaT immortalized keratinocyte cells (non-tumor cell line)

Structure (SMILES)	IC50 [1, 7] [µM]	IC50 [2, 8] [µM]	IC50 [3, 9] [µM]	IC50 (A549 (lung cancer) cells; [10]) [µM]	IC50 [4, 11] [µM]	IC50 [5, 9] [µM]	IC50 at 48 h [6, 12] [µM]	IC50 ([1]; SW480, 48 h) [µM]	IC50 ([2]; SW-620, 48 h) [µM]	IC50 ([3]; 48 h) [µM]	IC50 (A549 (lung cancer) cells; A549, 48 h) [µM]	IC50 ([4]; HepG2, 48 h) [µM]	IC50 ([5]; 48 h) [µM]	IC50 at 48 h ([6]; non-tumor cell line) [µM]
C#CCOC(=O)/C(=C/c1cc(OC)c(OC)c(OC)c1)c1ccc(OC)c(Br)c1 [Compound 6]	> 100	> 100	> 100	> 100	> 100	> 100	> 100	–	–	–	–	–	–	–
CNC(=O)/C(=C/c1cc(OC)c(OC)c(OC)c1)c1ccc(OC)c(Br)c1 [Compound 10]	52.2 ± 17.9	46 ± 11.4	44.9 ± 12.1	49.3 ± 16.3	50.5 ± 10.5	55.5 ± 20.3	55.3 ± 17	–	–	–	–	–	–	–
COc1cc2c(c(OC)c1OC)-c1ccc(OC)c(=O)cc1[C@@H](NC(C)=O)CC2 [colchicine, reference compound]	–	–	–	–	–	–	–	0.166 ± 0.065	0.13 ± 0.089	0.118 ± 0.047	0.094 ± 0.009	0.107 ± 0.025	0.11 ± 0.015	0.104 ± 0.012
COc1ccc(/C(=C\c2cc(OC)c(OC)c(OC)c2)C(=O)Nc2ccccc2)cc1Br [Compound 14]	> 100	> 100	> 100	> 100	> 100	> 100	> 100	–	–	–	–	–	–	–
CCOC(=O)/C(=C/c1cc(OC)c(OC)c(OC)c1)c1ccc(OC)c(Br)c1 [Compound 5]	73.6 ± 8.4	57.5 ± 3.9	43.2 ± 10.2	46.6 ± 12.1	42.1 ± 10.2	45.2 ± 5.5	45 ± 7.2	–	–	–	–	–	–	–
COc1ccc(/C(=C\c2cc(OC)c(OC)c(OC)c2)C(=O)NCc2ccccc2Cl)cc1Br [Compound 16]	> 100	> 100	> 100	92.8 ± 7.7	> 100	99.8 ± 3.9	> 100	–	–	–	–	–	–	–
COc1ccc(/C(=C\c2cc(OC)c(OC)c(OC)c2)C(=O)N2CCOCC2)cc1Br [Compound 21]	> 100	> 100	> 100	> 100	> 100	> 100	> 100	–	–	–	–	–	–	–
CCCCNC(=O)/C(=C/c1cc(OC)c(OC)c(OC)c1)c1ccc(OC)c(Br)c1 [Compound 11]	50.2 ± 11.2	50.8 ± 14.5	67.2 ± 18.6	65.1 ± 17.3	50.5 ± 17.5	61.4 ± 21.8	58.6 ± 22.2	–	–	–	–	–	–	–
COc1ccc(/C(=C\c2cc(OC)c(OC)c(OC)c2)C(=O)NCc2cccc(Cl)c2)cc1Br [Compound 17]	> 100	> 100	> 100	> 100	> 100	> 100	> 100	–	–	–	–	–	–	–
COc1ccc(/C(=C\c2cc(OC)c(OC)c(OC)c2)C(=O)NCc2ccccc2)cc1Br [Compound 13]	59.8 ± 23	62.4 ± 3.1	55.8 ± 23.7	82.1 ± 13.9	56.2 ± 22.2	59.8 ± 18.8	68.5 ± 4.8	–	–	–	–	–	–	–
COC(=O)/C(=C/c1cc(OC)c(OC)c(OC)c1)c1ccc(OC)c(Br)c1 [Compound 4]	57.6 ± 9.4	61.8 ± 11.4	65.9 ± 16.1	53 ± 10.8	63.7 ± 12.6	55.2 ± 17.3	68.3 ± 19.6	–	–	–	–	–	–	–
COc1ccc(/C(=C\c2cc(OC)c(OC)c(OC)c2)C(=O)OCc2ccccc2)cc1Br [Compound 7]	> 100	> 100	> 100	> 100	> 100	> 100	> 100	–	–	–	–	–	–	–
COc1ccc(/C(=C\c2cc(OC)c(OC)c(OC)c2)C(=O)NCc2ccccc2[N+](=O)[O-])cc1Br [Compound 15]	> 100	> 100	> 100	> 100	> 100	> 100	> 100	–	–	–	–	–	–	–
COc1ccc(/C(=C\c2cc(OC)c(OC)c(OC)c2)C(=O)NCc2ccc(Cl)cc2)cc1Br [Compound 18]	> 100	> 100	> 100	62.2 ± 8.6	89.6 ± 24.4	66.7 ± 6.4	> 100	–	–	–	–	–	–	–
COc1ccc(/C(=C\c2cc(OC)c(OC)c(OC)c2)C(=O)N(Cc2ccccc2)Cc2ccccc2)cc1Br [Compound 22]	> 100	> 100	> 100	> 100	> 100	> 100	> 100	–	–	–	–	–	–	–
C#CCNC(=O)/C(=C/c1cc(OC)c(OC)c(OC)c1)c1ccc(OC)c(Br)c1 [Compound 12]	> 100	> 100	> 100	> 100	> 100	> 100	> 100	–	–	–	–	–	–	–
COc1cc([C@@H]2c3cc4c(cc3[C@H](O)[C@H]3COC(=O)[C@H]23)OCO4)cc(OC)c1OC [podophyllotoxin, reference compound]	–	–	–	–	–	–	–	0.0444 ± 0.0022	0.0292 ± 0.0078	0.0129 ± 0.0015	0.0247 ± 0.0039	0.0258 ± 0.0056	0.0293 ± 0.0028	0.0316 ± 0.004
